{"source": "paper PMC8183095", "about": "“Uncovering the chemistry of C–C bond formation in C-nucleoside biosynthesis: crystal structure of a C-glycoside synthase/PRPP complex” (Chemical Communications (Cambridge, England), 2020)", "key": {"[1]": {"molecular_target": "T1, ForT (Streptomyces kaniharaensis, UniProt A0A5S9CYM0, G134P)", "T1 construct": "gene cof6", "T1 sequence (A0A5S9CYM0 entry or part of it G134P)": "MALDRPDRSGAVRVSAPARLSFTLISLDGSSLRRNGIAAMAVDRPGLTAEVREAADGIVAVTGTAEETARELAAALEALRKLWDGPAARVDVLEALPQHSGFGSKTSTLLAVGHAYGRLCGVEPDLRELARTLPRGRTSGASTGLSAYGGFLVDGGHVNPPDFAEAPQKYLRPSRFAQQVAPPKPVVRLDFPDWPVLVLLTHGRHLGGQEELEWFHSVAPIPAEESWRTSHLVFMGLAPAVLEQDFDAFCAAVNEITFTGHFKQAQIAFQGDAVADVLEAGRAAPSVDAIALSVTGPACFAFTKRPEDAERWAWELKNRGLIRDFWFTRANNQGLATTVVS", "test": "biochemical"}, "[2]": {"molecular_target": "T2, ForT (Streptomyces kaniharaensis, UniProt A0A5S9CYM0)", "T2 sequence (A0A5S9CYM0 1-341)": "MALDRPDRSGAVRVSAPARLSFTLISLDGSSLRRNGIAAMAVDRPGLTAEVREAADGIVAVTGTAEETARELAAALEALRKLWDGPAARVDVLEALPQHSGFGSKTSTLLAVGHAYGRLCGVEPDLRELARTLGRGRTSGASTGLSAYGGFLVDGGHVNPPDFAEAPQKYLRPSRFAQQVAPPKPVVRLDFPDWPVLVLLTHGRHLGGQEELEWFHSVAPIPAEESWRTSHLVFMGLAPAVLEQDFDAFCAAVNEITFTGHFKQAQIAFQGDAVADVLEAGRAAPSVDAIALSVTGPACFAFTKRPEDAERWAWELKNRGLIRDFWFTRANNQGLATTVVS", "test": "biochemical", "design": "gene cof6"}, "[3]": {"molecular_target": "T2, ForT", "test": "LCMS product detection; membrane-inlet mass spectrometry of CO2 production", "type": "biochemical", "design": "gene cof6; recombinant wild type, expressed in and purified from Escherichia coli; residues 11-171, 180-205, 209-341 (C-terminus) seen in the crystal; dimer in solution", "conditions": "co-substrate PRPP; Mg2+ apparently needed"}, "[4]": {"molecular_target": "ForT (wild type), C-glycoside synthase from Streptomyces kaniharaensis (Streptomyces kaniharaensis)", "test": "SEC-MALS; gel filtration and multi-angle light scattering of ForT in solution"}}}
{"compound": "O=P(O)(O)OC[C@H]1O[C@H](OP(=O)(O)OP(=O)(O)O)[C@H](O)[C@@H]1O", "note": "[compound 4, PRPP]", "values": [{"measurement": "Kd", "setting": "[1]", "result": "> 200", "unit": "µM"}, {"measurement": "Kd", "setting": "[2]", "result": 4, "unit": "µM"}]}
{"compound": "Nc1c(C(=O)O)n[nH]c1C(=O)O", "note": "[compound 5, 4-amino-1H-pyrazole-3,5-dicarboxylate]", "values": [{"measurement": "LCMS product detection; membrane-inlet mass spectrometry of CO2 production", "setting": "[3]", "result": "LCMS confirmed formation of the expected product when the enzyme was incubated with PRPP"}]}
{"compound": "ForT (wild type), C-glycoside synthase from Streptomyces kaniharaensis (enzyme)", "values": [{"measurement": "stoichiometry N", "setting": "[4]", "result": 2}]}
